Measured values: patent US20180296639A1, “THERAPEUTIC PEPTIDES” (Hoffmann-La Roche Inc., priority 2015, published 2018)

Legend:
[1] = molecular target: T1, GAPDH/Siah1 association (Homo sapiens, UniProt P04406+Q8IUQ4); assay: Co-immunoprecipitation (pull down) of GAPDH/Siah1 association in hRP; format: cell-based; conditions: high glucose 25 mM 48 hrs vs L-glucose 25 mM
T1 construct: immunoprecipitation (IP) with anti-Siah1, followed by western blot (WB) analysis of the immuno-complexes with anti-GAPDH; endogenous in cells; host or cells: primary human retinal pericytes (hRP), Cell Systems
Protocol: HRP were treated with normal glucose (5 mM), high glucose (25 mM) or L-glucose (25 mM) for 48 hrs.
HRP were treated with normal, osmotic control or high glucose plus 10 μM negative control siRNA, 10 μM Siah1-directed siRNA, 1 μM TAT-FLAG Control, 1 μM TAT-FLAG GAPDH peptide, 1 μM TAT-FLAG Siah1 peptide or 1 μM GAPDH+1 μM Siah1 peptides. Pull down assays were performed as described above. Our GAPDH peptide was designed to block the GAPDH binding site on Siah1 and the Siah1 peptide was designed to block the Siah1 binding site on GAPDH (Supplemental Table 1).
HRP Treatment: Primary cultures of human retinal pericytes (hRP) (Cell Systems; Kirkland, Wash.) were seeded into tissue culture flasks coated with attachment factor (Cell Signaling; Danvers, Mass.). HRP were grown and cultured in Dulbecco's modified Eagle's medium normal glucose (5.5 mM DMEM 1×, Life Technologies; Carlsbad, Calif.) supplemented with 10% FBS, and cell growth supplements, including antibiotics (Lonza; Basel). All cultures were incubated at 37° C., 5% CO2 and 95% relative humidity (20.9% oxygen). Passages 5 to 7 were used for all experiments. HRP identity was confirmed by immunoreactivity of neuron glial 2 (NG2) (EMD Millipore; Temecula, Calif.). […] A FLAG tag peptide sequence enables detection and quantification of these peptides (FIG. 12). […]

[2] = test system: human retinal pericytes (hRP); assay: Apoptosis measurement by caspase-3 enzymatic activity in hRP; format: cell-based; conditions: 25 mM D-glucose for 72 hrs
Protocol: HRP were treated with normal glucose, L-glucose or high glucose for 48 hrs-72 hrs. […] Furthermore, GAPDH and Siah1 blocking peptides inhibited high glucose-induced hRP apoptosis (FIG. 5D Control Peptide p=0.0019, GAPDH peptide p=0.0090, Siah1 peptide p=0.0053).
HRP Treatment: Primary cultures of human retinal pericytes (hRP) (Cell Systems; Kirkland, Wash.) were seeded into tissue culture flasks coated with attachment factor (Cell Signaling; Danvers, Mass.). HRP were grown and cultured in Dulbecco's modified Eagle's medium normal glucose (5.5 mM DMEM 1×, Life Technologies; Carlsbad, Calif.) supplemented with 10% FBS, and cell growth supplements, including antibiotics (Lonza; Basel). All cultures were incubated at 37° C., 5% CO2 and 95% relative humidity (20.9% oxygen). Passages 5 to 7 were used for all experiments. HRP identity was confirmed by immunoreactivity of neuron glial 2 (NG2) (EMD Millipore; Temecula, Calif.). […] A FLAG tag peptide sequence enables detection and quantification of these peptides (FIG. 12).
Apoptosis Measurements: All apoptosis measurements were taken after 72 hrs of appropriate treatment. […] Samples were quantified using flow cytometry analysis performed at Vanderbilt's Flow Cytometry Shared Resource core laboratory. […] Activity was quantified using the EnzChek Caspase-3 Assay Kit (Life Technologies). […] Fluorescence emission at 440 nm was measured 2 hrs later.

[3] = test system: Siah1; assay: Siah1 total protein western blot in hRP; format: cell-based, human; conditions: 25 mM D-glucose 48 hrs vs 25 mM L-glucose
Protocol: HRP were treated with normal glucose (5 mM D-glucose), osmotic control (25 mM L-glucose) or high glucose (25 mM D-glucose) for 48 hrs. Siah1 total protein increased 2-fold in cultures treated with high glucose compared to those treated with the osmotic control (p=0.0136). There was no significant difference between osmotic control and normal glucose treated cells (FIG. 1A).
Nuclear Fractionation and Western Blot Analysis: HRP were treated as necessary. Cells were harvested using TrypLE Express (Life Technologies), and lysed using radioimmunoprecipitation assay (RIPA) buffer (Qiagen; Limburg, Netherlands). The NE-PER nuclear and cytoplasmic extraction reagents (Thermo Scientific; Nashville, Tenn.) were used to separate lysates into cytosolic and nuclear fractions. Samples were equilibrated for total protein concentration, subjected to 10% SDS/PAGE, and gels were transferred to nitrocellulose membranes using the iBlot system (Life Technologies). […] (β-actin was used to determine total protein concentration. Membranes were incubated in Pierce ECL western blotting substrate and developed using ChemiDoc MP (Bio-Rad; Hercules, Calif.). At least three independent experiments were used to generate western blot quantification graphs. Blots were quantified using the ImageJ 1.47v software.

T1 sequence (Q8IUQ4 whole entry): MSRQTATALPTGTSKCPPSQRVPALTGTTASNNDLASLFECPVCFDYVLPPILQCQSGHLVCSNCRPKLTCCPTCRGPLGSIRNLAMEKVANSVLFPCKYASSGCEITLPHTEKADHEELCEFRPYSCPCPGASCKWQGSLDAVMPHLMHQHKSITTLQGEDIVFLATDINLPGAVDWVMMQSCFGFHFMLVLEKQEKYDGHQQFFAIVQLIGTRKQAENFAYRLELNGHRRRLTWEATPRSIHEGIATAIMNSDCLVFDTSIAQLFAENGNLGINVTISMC
T1 sequence (P04406 2-335 limits assumed): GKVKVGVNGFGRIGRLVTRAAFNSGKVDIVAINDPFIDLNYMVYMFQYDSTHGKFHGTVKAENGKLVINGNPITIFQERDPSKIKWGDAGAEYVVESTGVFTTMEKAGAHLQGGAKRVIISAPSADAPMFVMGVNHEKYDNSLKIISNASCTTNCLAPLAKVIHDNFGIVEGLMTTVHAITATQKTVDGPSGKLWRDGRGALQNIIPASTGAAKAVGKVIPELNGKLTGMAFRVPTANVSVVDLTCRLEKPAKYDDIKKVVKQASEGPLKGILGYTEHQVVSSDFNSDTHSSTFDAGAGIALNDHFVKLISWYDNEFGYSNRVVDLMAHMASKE

- increase in GAPDH/Siah1 association vs osmotic control [1]: 1.5 fold
SMILES: O=C[C@H](O)[C@@H](O)[C@H](O)[C@H](O)CO [high glucose, D-glucose]
- increase in caspase-3-enzymatic activity [2]: 3 fold
- increase of Siah1 total protein vs osmotic control [3]: 2 fold
